The target of data set [1] is Voltage-gated potassium channel, KQT; KCNQ2(Kv7.2)/KCNQ3(Kv7.3) (Homo sapiens) (UniProt O43526+O43525). The data set is described as follows: Agonist activity at human KCNQ2/3 expressed in HEK293 cells by FLIPR based thallium influx assay relative to retigabine. The format is cell-based.
Data set [2] addresses Voltage-gated potassium channel, KQT; KCNQ2(Kv7.2)/KCNQ3(Kv7.3) (Homo sapiens, UniProt O43525+O43526). Nature of the data set: Agonist activity at human KCNQ2/3 expressed in HEK293 cells by FLIPR based thallium influx assay. The format is cell-based.
The test system of data set [3] is Rattus norvegicus. Nature of the data set: Antiallodynic activity in rat model of capsaicin-induced mechanical hyperalgesia assessed as increase in paw withdrawal threshold at 100 mg/kg, ip administered 30 mins before capsaicin addition relative to control. The format is functional.
A short description of data set [4]: Half life in rat at 1 mg/kg, iv. The format is ADME, organism-based. The settings on record: in vivo.
The subject of data set [5] is Rattus norvegicus. Nature of the data set: Antiallodynic activity in rat model of capsaicin-induced mechanical hyperalgesia assessed as increase in paw withdrawal threshold at 3 mg/kg, ip administered 30 mins before capsaicin addition relative to control. The class given is functional.
Data set [6] is described as follows: Oral bioavailability in rat at 1 mg/kg. The settings on record: in vivo. The class given is ADME, organism-based.
Data set [7] relates to Rattus norvegicus. Nature of the data set: Antiallodynic activity in ip dosed rat model of capsaicin-induced mechanical hyperalgesia assessed as increase in paw withdrawal threshold administered 30 mins before capsaicin addition. The class given is functional, organism-based.
Data set [8] has as its system Rattus norvegicus. Nature of the data set: Antiallodynic activity in rat model of capsaicin-induced mechanical hyperalgesia assessed as increase in paw withdrawal threshold at 30 mg/kg, ip administered 30 mins before capsaicin addition relative to control. The class given is functional.
Data set [9] is described as follows: Plasma clearance in rat at 1 mg/kg. iv. The class given is ADME, organism-based.
Data set [10] relates to Rattus norvegicus. The data set is described as follows: Antiallodynic activity in rat model of capsaicin-induced mechanical hyperalgesia assessed as increase in paw withdrawal threshold at 10 mg/kg, ip administered 30 mins before capsaicin addition relative to control. The format is functional.
The nature of data set [11]: AUC in rat at 1 mg/kg, po. The class given is ADME, organism-based. The settings on record: in vivo.
Data set [12] in a line: Ratio of drug level in brain to plasma in rat. The format is ADME. The settings on record: read-out: BPR.

pEC50: −log10 of the molar value. Bounds are passed on as bounds.

Chain of Voltage-gated potassium channel, KQT; KCNQ2(Kv7.2)/KCNQ3(Kv7.3) (O43526 whole entry): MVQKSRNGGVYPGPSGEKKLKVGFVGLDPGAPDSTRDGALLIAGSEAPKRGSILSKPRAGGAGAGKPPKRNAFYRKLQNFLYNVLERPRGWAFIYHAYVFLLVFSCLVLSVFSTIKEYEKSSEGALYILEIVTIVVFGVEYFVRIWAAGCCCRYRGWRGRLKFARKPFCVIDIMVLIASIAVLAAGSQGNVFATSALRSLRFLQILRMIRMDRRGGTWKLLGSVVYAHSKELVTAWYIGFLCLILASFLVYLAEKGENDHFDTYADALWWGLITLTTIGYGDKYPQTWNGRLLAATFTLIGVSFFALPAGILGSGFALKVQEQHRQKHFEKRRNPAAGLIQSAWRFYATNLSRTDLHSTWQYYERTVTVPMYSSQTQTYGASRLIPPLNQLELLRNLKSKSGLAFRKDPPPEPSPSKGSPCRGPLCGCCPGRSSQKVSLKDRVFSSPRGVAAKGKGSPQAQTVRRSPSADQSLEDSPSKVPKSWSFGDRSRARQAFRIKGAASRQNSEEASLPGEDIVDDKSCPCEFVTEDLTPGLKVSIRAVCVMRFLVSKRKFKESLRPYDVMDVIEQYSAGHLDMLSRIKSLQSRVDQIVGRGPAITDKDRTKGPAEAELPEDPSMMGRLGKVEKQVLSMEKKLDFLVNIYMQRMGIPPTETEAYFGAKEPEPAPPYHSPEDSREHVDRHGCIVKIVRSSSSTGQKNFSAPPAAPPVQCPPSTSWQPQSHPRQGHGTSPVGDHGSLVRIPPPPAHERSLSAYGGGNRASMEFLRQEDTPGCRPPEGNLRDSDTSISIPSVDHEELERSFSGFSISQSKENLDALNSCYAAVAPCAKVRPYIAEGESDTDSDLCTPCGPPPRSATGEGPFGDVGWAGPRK
Chain of Voltage-gated potassium channel, KQT; KCNQ2(Kv7.2)/KCNQ3(Kv7.3) (O43525 whole entry): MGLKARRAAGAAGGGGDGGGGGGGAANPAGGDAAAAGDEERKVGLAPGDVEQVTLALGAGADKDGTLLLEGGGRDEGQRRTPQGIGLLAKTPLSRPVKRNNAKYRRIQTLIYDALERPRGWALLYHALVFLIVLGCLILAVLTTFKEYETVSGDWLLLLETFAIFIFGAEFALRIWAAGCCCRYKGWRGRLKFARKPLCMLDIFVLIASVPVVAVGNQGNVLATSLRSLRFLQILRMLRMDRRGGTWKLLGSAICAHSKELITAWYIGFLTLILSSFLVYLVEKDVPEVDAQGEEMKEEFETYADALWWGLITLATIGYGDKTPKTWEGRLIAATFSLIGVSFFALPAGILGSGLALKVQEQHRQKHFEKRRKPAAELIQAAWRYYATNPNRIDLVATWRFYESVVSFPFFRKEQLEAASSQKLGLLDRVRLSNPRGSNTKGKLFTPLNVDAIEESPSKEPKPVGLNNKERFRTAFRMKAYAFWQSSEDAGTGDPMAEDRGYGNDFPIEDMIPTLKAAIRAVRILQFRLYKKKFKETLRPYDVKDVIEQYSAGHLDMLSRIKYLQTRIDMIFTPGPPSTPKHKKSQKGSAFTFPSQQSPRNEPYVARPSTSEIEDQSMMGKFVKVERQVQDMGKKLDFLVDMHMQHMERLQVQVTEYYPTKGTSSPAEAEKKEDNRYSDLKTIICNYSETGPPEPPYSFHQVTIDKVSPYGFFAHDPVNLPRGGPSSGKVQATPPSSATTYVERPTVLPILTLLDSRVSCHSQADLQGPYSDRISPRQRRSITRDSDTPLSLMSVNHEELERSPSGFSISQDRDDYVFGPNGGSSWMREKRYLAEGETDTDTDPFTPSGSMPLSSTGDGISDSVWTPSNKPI

Usually Emax stands for the greatest response seen or fitted, relative to the assay's reference. Usually pEC50 stands for −log10 of the EC50, conventionally taken in molar units. Lower therefore signals a large EC50. `Cc1cc(C)n2nc(NC(=O)CCC3CCCC3)c(-c3ccc(F)c(C)c3)c2n1` had an Emax in [1] of 205%. The molecule also had a pEC50 in [2] of 7.15.
In turn, `O=C(Nc1nn2cccnc2c1-c1ccccc1)C1CCCCC1` showed an Emax in [1] of 8%.
On to `O=C(CCC1CCCC1)Nc1nn2cccnc2c1-c1ccc(F)cc1`, for which the negative logarithm of the EC50 (pEC50) in [2] was 6.85.
On to `CC(C)(C)CC(=O)Nc1nn2cccnc2c1-c1ccc(C(F)(F)F)cc1`, for which the Emax in data set [1] amounted to 113%. In [2], this molecule gave a pEC50 of 6.85.
In the case of `NCC1(CC(=O)O)CCCCC1` [GABAPENTIN], the Activity in data set [3] is on record as 70%.
As to `Cc1cc(-c2c(NC(=O)CC3CCCC3)nn3cccnc23)ccc1F`, the Emax in data set [1] was 139%. The pEC50 in data set [2] is 5.93.
With `Cc1cnc2c(-c3ccc(F)c(C)c3)c(NC(=O)CC(C)(C)C)nn2c1`, the maximum response (Emax) in data set [1] was 159%. For the same molecule, the pEC50 in [2] is 6.23.
On to `CC(C)(C)CC(=O)Nc1nn2cccnc2c1-c1ccc(F)cc1`, for which the pEC50 in data set [2] was 5.17.
Still for that read-out and setting: to `O=C(CCC1CCCC1)Nc1nn2cccnc2c1-c1ccc(C(F)(F)F)cc1` belongs 7.30.
In data set [1], `O=C(CC1CCCCC1)Nc1nn2cccnc2c1-c1ccccc1` returned an Emax of 133%. This molecule had a pEC50 in data set [2] of 6.54.
In turn, `Cc1cnc2c(-c3ccc(F)c(C)c3)c(NC(=O)CC3CCCC3)nn2c1` returned an Emax in data set [1] of 168%. Besides, the negative-log EC50 (pEC50) in [2] is 6.85.
As to `O=C(CC1CCCC1)Nc1nn2cccnc2c1-c1ccc(F)cc1`, in [1], the Emax was found to be 100%. Also, the pEC50 in [2] is 6.00.
The corresponding values for `CCOC(=O)Nc1ccc(NCc2ccc(F)cc2)nc1N` [FLUPIRTINE] are 112% and 6.25.
Consider `Cc1cc(-c2c(NC(=O)CC(C)(C)C)nn3cccnc23)ccc1F`, for which the Emax in data set [1] is 135%. Besides, the pEC50 in [2] was 5.64.
In the case of `O=C(CC1CCCC1)Nc1nn2cccnc2c1-c1ccc(OC(F)(F)F)cc1`, in data set [1], the maximum response (Emax) amounted to 88%. Besides, the negative logarithm of the EC50 (pEC50) in data set [2] is 6.72.
In turn, `Cc1cc(C)n2nc(NC(=O)CC3CCCC3)c(-c3ccc(F)c(C)c3)c2n1` returned an Emax in data set [1] of 165%. In [2], this molecule had a pEC50 of 7.15.
Molecule `CCOC(=O)Nc1ccc(NCc2ccc(F)cc2)cc1N` [EZOGABINE] registered a maximal effect (Emax) in [1] of 99%. In [2], this molecule gave a negative-log EC50 (pEC50) of 5.36.
`O=C(CC1CCCC1)Nc1nn2cccnc2c1-c1ccc(C(F)(F)F)cc1`: the maximum response (Emax) in [1] is 28%.
A word on the half-life: it is how long it takes for the measured level to halve. Low readings indicate rapid decline, high ones slow decline. One may read the bioavailability as the share of a dose that reaches the circulation, judged against a reference dose that is usually intravenous. A lower bioavailability goes with poor availability. By clearance is commonly meant the volume of plasma or blood freed of the substance per unit of time. As usually defined, the AUC is concentration integrated over time. Read a high AUC as more exposure. Consider `CC(C)(C)CC(=O)Nc1nn2cccnc2c1-c1ccc(OC(F)(F)F)cc1`, for which, in data set [4], the half-life is 1.9 h. The Activity in data set [5] was 10%; in [7], “Dose-dependent effect”; in [8], 52%; in data set [10], 26%. In addition, the bioavailability in data set [6] came to 56%. In data set [2], this molecule gave a negative-log EC50 (pEC50) of 6.39. The same molecule showed a clearance in data set [9] of 13.3 mL/min/kg. In data set [11], this molecule had an exposure (AUC) of 706 ng·h/mL. For the same molecule, the Kp in [12] came to 3.8.
Consider `O=C(CCC1CCCC1)Nc1nn2cccnc2c1-c1ccc(OC(F)(F)F)cc1`, for which, in data set [2], the pEC50 is 6.51.
`Cc1cc(-c2c(NC(=O)CCC3CCCC3)nn3cccnc23)ccc1F` came in with an Emax in data set [1] of 169%. The pEC50 in [2] is 6.74.
In [2], `O=C(CCC1CCCCC1)Nc1nn2cccnc2c1-c1ccccc1` gave a pEC50 of 6.89.
In data set [2], `Cc1cc(C)n2nc(NC(=O)CC(C)(C)C)c(-c3ccc(F)c(C)c3)c2n1` gave a pEC50 of 7.30.
`O=C(Nc1nn2cccnc2c1-c1ccc(F)cc1)C1CCCC1` gave a maximal effect (Emax) in data set [1] of 20%. Also, the pEC50 in data set [2] was less than 4.49.
Turning to `CC(C)(C)CC(=O)Nc1nn2cccnc2c1-c1ccccc1`, the Emax in data set [1] amounted to 26%.
The molecule `CC(C)(C)CC(=O)Nc1nn2c(C(C)(C)C)ccnc2c1-c1ccc(OC(F)(F)F)cc1` had a pEC50 in data set [2] of less than 4.49.
Molecule `Cc1cnc2c(-c3ccc(F)c(C)c3)c(NC(=O)CCC3CCCC3)nn2c1` showed a pEC50 in data set [2] of 7.10.
In turn, `CC(C)(C)c1ccnc2c(NC(=O)Cc3cc(F)cc(F)c3)cnn12` gave a maximal response (Emax) in [1] of 149%. Further, in [2], the negative logarithm of the EC50 (pEC50) is 6.04.

These data come from ChEMBL document CHEMBL4351029, “Design and evaluation of pyrazolopyrimidines as KCNQ channel modulators” (Bioorg Med Chem Lett, 2019).
